Values of other authors in patent US7772228B2, “Method for treatment of bacterial infections with once or twice-weekly administered rifalazil” (priority 1998, dated 2010).

Test system: M. tuberculosis
Conditions: depending on the degree of resistance to rifampin; cited from earlier work

CO[C@H]1/C=C/O[C@@]2(C)Oc3c(C)c(O)c4c(O)c(c(/C=N/N5CCN(C)CC5)c(O)c4c3C2=O)NC(=O)/C(C)=C\C=C\[C@H](C)[C@H](O)[C@@H](C)[C@@H](O)[C@@H](C)[C@H](OC(C)=O)[C@@H]1C [Rifampin, rifampin, reference compound]
MICs for MTB, range: <0.002 to 4.0 µg/mL
